Test results published in article PMC12040169 (PLOS Biology, 2025).

Assay: in vitro
Conditions: human, hela cells, % viability

Row | Structure (SMILES) | viability at 28.5 h, 10 µM | viability at 28.5 h, 10 µM (bulk resorufin, single well)
1 | Cc1ccc(-n2ncc3c(=O)n(Cc4ccccc4C)cnc32)c(C)c1 [CBK287695] | 107% | –
2 | Cn1c(CN2CCN(C(=O)Nc3ccccc3)CC2)nc2cc([N+](=O)[O-])ccc21 [CBK268260] | 91.8% | –
3 | Cc1nc(C)c(C(=O)N2Cc3ccccc3C2)s1 [CBK200326] | 95.9% | –
4 | COc1cncc(C(NC(=O)c2cc(=O)cc(C)o2)[C@H]2C[C@@H](O)C2)c1 (some centres unmarked) [CBK306833] | 97.5% | –
5 | CCCC/C=C/c1cnc(N)c(-c2ccc(C(=O)NCCO)cc2)n1 [CBK064141] | 106% | –
6 | COc1ccc(S(=O)(=O)Nc2cccc(C(=O)O)c2)cc1C(=O)O [CBK264069] | 86.8% | –
7 | CCN(CCc1nc2cc(OC)ccc2[nH]1)C(=O)c1cc(C#N)cn1C [CBK306658] | 90.5% | –
8 | O=c1[nH]c2ccccc2n1C1CCN(S(=O)(=O)c2cccs2)CC1 [CBK149689] | 98.4% | –
9 | CCOC(=O)c1cnn(C2CCCN(Cc3cncs3)C2)c1 (centres unmarked) [CBK304039] | 94.7% | –
10 | CCOc1ccc2[nH]c3c(c2c1)CN(C(=O)C1(C)CCCO1)CC3 (centres unmarked) [CBK282659] | 86.2% | –
11 | CSc1cccc(NC(=O)CN(C)S(=O)(=O)c2ccc3ccccc3c2)c1 [CBK266708] | 86.2% | –
12 | Nc1nonc1NC(=O)c1ccccc1Cl [CBK019040] | 99.3% | –
13 | CCn1cc(C(=O)NN)c(=O)c2cc(F)c(NN)cc21 [CBK262735] | 79.1% | –
14 | CCCCOC(=O)c1ccccc1NC(=O)NCCc1cccs1 [CBK043573] | 93.5% | –
15 | CCC(NC(=O)C(C)Cn1cccn1)c1ccc(F)cc1 (centres unmarked) [CBK283210] | 88.1% | –
16 | CC(=O)N1CCC(C(=O)NC(=O)Nc2ccccc2F)CC1 [CBK034848] | 107% | –
17 | c1ccc2c(c1)CCCN2Cc1nc2ccccc2[nH]1 [CBK138329] | 107% | –
18 | COc1cccc(C2Nc3ccc4ccccc4c3C3=C2C(=O)CC(C)(C)C3)c1OCC(=O)O (centres unmarked) [CBK263045] | 89.8% | –
19 | CC(=O)C(C(=O)Nc1ccc(F)cc1)C(c1cccc2ccccc12)C(C#N)C#N (centres unmarked) [CBK262081] | 90.4% | –
20 | CC(=O)Nc1ccc(C(=O)NC(c2cccs2)C2CCCC2)cc1 (centres unmarked) [CBK297777] | 84.1% | –
21 | O=C(c1cccc(C(F)(F)F)c1)N1CCCC2(CCN(Cc3ccccc3)C2)C1 (centres unmarked) [CBK137039] | 90.4% | –
22 | CCNC(Cc1ccc2ccccc2c1)C(=O)OC (centres unmarked) [CBK071702] | 109% | –

Row | Structure (SMILES) | viability at 28.5 h, 10 µM | viability at 28.5 h, 10 µM (bulk resorufin, single well)
23 | CC(=O)NC1(c2ccccc2F)CCN(CC(=O)N(C)C)CC1 [CBK283618] | 103% | –
24 | Oc1ccc(Cn2c(-c3ccc(O)cc3)nc3ccccc32)cc1 [CBK291187] | 90.3% | –
25 | CNCCc1csc2ccccc12 [CBK027127C] | – | 118%
26 | CCOC(=O)N1CCC2(CC1)Oc1ccc(-c3ccccc3)cc1O2 [CBK085500] | – | 101%
27 | c1ccc(-c2cnc3c(N4CCCC4)nc(-c4cccnc4)cn23)cc1 [CBK092245] | 86.7% | –
28 | COc1cccc(C2C(C(=O)c3ccc(Cl)cc3)=C(O)C(=O)N2CCCN2CCOCC2)c1 (centres unmarked) [CBK264865] | 105% | –
29 | COc1ccc(NC(=O)c2ccc(-c3nnn[nH]3)cc2)cc1Cl [CBK295139] | 114% | –
30 | N#Cc1ccc(C(=O)N2C[C@@H]3C[C@H](C2)c2c(-c4cccc(C#N)c4)ccc(=O)n2C3)cc1 [CBK289196] | 104% | –
31 | CC(C)C(=O)NC(NC(=S)Nc1cccc2cccnc12)C(Cl)(Cl)Cl (centres unmarked) [CBK261051] | 90% | –
32 | O=C(Nc1ccccc1)c1cc2sccc2s1 [CBK057696] | 87.9% | –
33 | CCC(C)NC(=O)C1(Cc2cccc(-c3ccc(OC)cc3)c2)CCOCC1 (centres unmarked) [CBK286513] | 94.9% | –
34 | COc1cccc(CNC(=O)C2CCCN(c3nc4c(-c5ccccc5)csc4c(=O)[nH]3)C2)c1 (centres unmarked) [CBK215463] | 99.8% | –
35 | CCOC(=O)c1c(NC(=O)CSc2n[nH]c(N)n2)sc2c1CCCCC2 [CBK266569] | 101% | –
36 | Oc1cccc(OCCOc2nc3ccccc3nc2N2CCCC2)c1 [CBK115901] | 84.1% | –
37 | Oc1ccc2ccccc2c1/C=N/Nc1nnn[nH]1 [CBK262028] | 106% | –
38 | CN(Cc1cnc(-c2ccncc2)cn1)C1CCN(C(=O)OC(C)(C)C)CC1 [CBK172979] | 93.4% | –
39 | CCN1C(=O)CC2(C1=O)C(=O)N(CCc1cccs1)c1ccccc12 (centres unmarked) [CBK075521] | 91.4% | –
40 | O=C(c1ccccc1Br)N1CCCCC1 [CBK028504] | 87.6% | –
41 | CC1CCc2c(C(=O)Nc3ncc(Cc4ccccc4)s3)csc2C1 (centres unmarked) [CBK300531] | 94.6% | –
42 | O=C(CCCOc1ccccc1)Nc1cccc(N2CCNCC2)c1 [CBK028290T] | 95.4% | –
43 | c1ccc2c(Sc3cncc(N4CCCC4)n3)cccc2c1 [CBK089594] | 88.2% | –
44 | Cc1nn2cc(CNC(=O)CN3CCOc4ccccc4C3)nc2s1 [CBK306921] | 89% | –

Row | Structure (SMILES) | viability at 28.5 h, 10 µM | viability at 28.5 h, 10 µM (bulk resorufin, single well)
45 | O=C(Nc1cnc(-c2ccc(F)c(Cl)c2)c(-c2cccnc2)n1)c1ccc(N2CCCC2=O)cc1 [CBK036794] | 107% | –
46 | CCn1c(SCC(=O)Nc2nc(C)c(C(=O)OC)s2)nc2c1c(=O)n(C)c(=O)n2C [CBK127470] | 101% | –
47 | Cc1ccc2c(CC(=O)N3CCC(C(=O)O)CC3)coc2c1 [CBK286711] | 79.9% | –
48 | O=S(=O)(Cc1cccc(C(F)(F)F)c1)c1csc2ccnc(N3CCNCC3)c12 [CBK039166C] | 92% | –
49 | O=C(CN1CCOCC1)Nc1c2c(nc3ccccc13)N(c1ccccc1)CC2 [CBK111136G] | 87.9% | –
50 | CC(C)CC1OC(NC2CCCCCC2)=NC1=O (centres unmarked) [CBK074901] | 88.8% | –
51 | COc1cccc(CC(=O)NCCNc2cccc(F)c2C#N)c1 [CBK305684] | 78.5% | –
52 | CCCc1occc1C(=O)N1CCOCC1C(=O)O (centres unmarked) [CBK304151] | 97.9% | –
53 | Cc1ccccc1CNC(=O)CCc1c(C)nc2nc(N)nn2c1C [CBK304987] | 108% | –
54 | COC(=O)CNC(=O)c1nc(SC)ncc1Cl [CBK057651] | 107% | –
55 | Cc1nc(C(Cc2ccsc2)NC(=O)C2CCC(=O)N2)sc1C (centres unmarked) [CBK284780] | 101% | –
56 | CCN1CCC2(CC1)NC(=O)Cc1ccccc12 [CBK039810] | 96% | –
57 | Cc1oc2ncn(Cc3ccccc3)c(=N)c2c1C [CBK288160] | 94.4% | –
58 | Cc1ccc(-c2noc([C@@H]3Cc4[nH]cnc4CN3C(=O)CCC(=O)O)n2)cc1 [CBK288958] | 96.3% | –
59 | O=c1[nH]c2ccccc2n1C1CCN(S(=O)(=O)c2ccc(OC(F)(F)F)cc2)CC1 [CBK149690] | 93.8% | –
60 | CCOC(=O)N1CCC(NC(=O)N2CCCC(CO)C2)CC1 (centres unmarked) [CBK156345] | 90.6% | –
61 | O=C(Cn1c2ccccc2c(=O)c2ccccc21)Nc1ccc(-n2cncn2)nc1 [CBK295350] | 93.1% | –
62 | O=C(c1ccco1)N1CCC(n2nc(C3CC3)ccc2=O)CC1 [CBK282350] | 109% | –
63 | CCOC(=O)c1c(NC(=O)CSc2nnc3ccccn23)sc2c1CCC(C)C2 (centres unmarked) [CBK265668] | 89% | –
64 | CCc1ccc(OCCNc2cc(N3CCN(CCO)CC3)ccc2[N+](=O)[O-])cc1 [CBK046496] | 91.7% | –
65 | O=C(Nc1nnc(-c2ccccn2)o1)c1cc(Cl)ccc1Cl [CBK287429] | 96.9% | –
